In patent US20140242606A1, “PROBE FOR iFRET AND USE THEREOF” (KOREA RESEARCH INSTITUTE OF BIOSCIENCE AND BIOTECHNOLOGY, priority 2011, published 2014):

Key:
[1] = value used for calculation; cited from earlier work
[2] = Fluorescence characterization of fluorescent molecules (excitation and emission wavelengths); type: physicochemical; conditions: fluorescent molecule, Table 1
From the text: 1-Naphthylethylenediamine of Chemical Formula I can be effectively detected by LED (light-emitting diode), and used as a fluorescent probe. In addition, because this compound has an excitation wavelength of 340 nm to 380 nm and an emission wavelength of 400 nm to 600 nm, it has longer emission wavelength than the known fluorophores, and therefore, it can be detected as a fluorescent molecule distinct from the cellular autofluorescence.
The excitation and emission wavelengths of the fluorescent molecules of the present invention, that is, the compounds represented by Chemical Formulae I to XXII are described in Table 1, and graphs showing the fluorescent characteristics thereof are given in FIGS. 3 to 15.

active caspase = target: T1, active caspase (Homo sapiens, UniProt P42574); test: iFRET detection of caspase-3 with probe XXIII; type: binding; conditions: mixture of probe and active caspase, excitation at 280 nm, versus caspase or probe alone
T1 sequence (P42574 29-175 limits assumed): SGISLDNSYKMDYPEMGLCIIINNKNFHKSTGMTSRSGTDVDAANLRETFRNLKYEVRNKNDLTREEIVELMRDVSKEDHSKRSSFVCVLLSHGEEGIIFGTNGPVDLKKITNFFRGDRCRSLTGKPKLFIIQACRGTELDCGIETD
T1 sequence (P42574 176-277 limits assumed): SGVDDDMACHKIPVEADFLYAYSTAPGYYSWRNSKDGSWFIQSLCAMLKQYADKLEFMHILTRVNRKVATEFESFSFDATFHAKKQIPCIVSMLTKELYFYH
From the text: <Detection of Caspase-3 Protein and Test of its Activity Using iFRET Probe of Chemical Formula XXIII>
Chemical Formula XXIII and caspase protein were used to detect iFRET signals.

inactive caspase = test: iFRET control with inactive caspase; type: binding; conditions: inactive caspase and probe excited at 280 nm
[3] = Fluorescence of the iFRET probe alone; type: physicochemical; conditions: for fluorescence emission wavelength of probe alone: excitation / UV irradiation at 280 nm
From the text: After excitation at 260, 280, 340, and 360 nm, the emitted fluorescence spectra were examined. […]
(§1) As in FIG. 23 showing the result of using the compound of Chemical Formula XXV as a probe for iFRET, the probe itself emitted low fluorescence (blue line) at 430 nm by UV irradiation at 280 nm; the protein (streptavidin) emitted fluorescence (green line) at 340 nm by UV irradiation at 280 nm.
As in FIG. 24 showing the result of using the compound of Chemical Formula XXVI as a fluorescent probe, the probe itself emitted low fluorescence (blue line) at 460 nm by UV irradiation at 280 nm; the protein (streptavidin) emitted fluorescence (green line) at 340 nm by UV irradiation at 280. […] Further, it was confirmed that the fluorescence increasing rate at the above emission wavelength was 600% or more, indicating production of effective iFRET signals. […]

[4] = Quantum yield measurement; type: physicochemical; conditions: 0.1 M pH 10.0 phosphate buffer, standard 4-methyl-umbelliferone
Procedure: (§2) The quantum yield of each compound was measured in 0.1 M pH 10.0 phosphate buffer. 4-methyl-umbelliferone (ΦF 0.63) was used as a standard material, tryptophan (ΦF=0.12) was used as an FRET donor to calculate the quantum yield. FRET efficiency was calculated based on the results measured in PBS buffer at pH 7.4, and fluorescence was measured using an LS55 fluorescence spectrometer manufactured by Perkin Elmer.

streptavidin [5] = target: T2, streptavidin (Streptomyces avidinii, UniProt P22629); test: FRET efficiency and Forster distance of biotin-conjugated probes; type: binding; conditions: between iFRET probe and streptavidin
T2 sequence (P22629 25-183): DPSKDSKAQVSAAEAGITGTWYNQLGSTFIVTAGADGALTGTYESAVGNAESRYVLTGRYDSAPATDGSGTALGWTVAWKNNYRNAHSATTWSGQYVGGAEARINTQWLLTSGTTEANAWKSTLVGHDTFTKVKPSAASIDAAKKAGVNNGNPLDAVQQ
Procedure: as §2

streptavidin [6] = target: T2, streptavidin; test: iFRET detection of streptavidin with biotin-conjugated probes; type: binding; conditions: UV irradiation at 280 nm
From the text: The results of detecting streptavidin using Compounds of Chemical Formulae XXV to XXVIII as probes for iFRET are shown in FIGS. 23 to 26.
as §1
As in FIG. 24 showing the result of using the compound of Chemical Formula XXVI as a fluorescent probe, the probe itself emitted low fluorescence (blue line) at 460 nm by UV irradiation at 280 nm; the protein (streptavidin) emitted fluorescence (green line) at 340 nm by UV irradiation at 280. […] Further, it was confirmed that the fluorescence increasing rate at the above emission wavelength was 600% or more, indicating production of effective iFRET signals.
Because the compound of Chemical Formula XXVII emitted fluorescence at the longer wavelength than the known iFRET probe, signal-to-noise ratio is […] during real-time cell imaging, thereby providing more clear images.
In order to examine target specificity of the probe having Chemical Formula XXVIII, the probe was exposed to BSA to examine whether iFRET signals were produced by binding of the probe to BSA. […] Therefore, it was confirmed that the biotin-conjugated iFRET fluorescent probe of the present invention selectively binds to streptavidin to produce iFRET signals.

SMILES	Emission wavelength (nm) [2]	Excitation wavelength (nm) [2]	other results
Cc1cc(=O)oc2cc(O)ccc12 [4-methyl-umbelliferone]	–	–	quantum yield ΦF of standard material / FRET donor [1]: 0.63
NCCNc1cccc2ccccc12 [Chemical Formula I, 1-naphthylethylenediamine]	430 nm	340 nm	–
COC(=O)C1=CN(C)C=CC1(C)C [Chemical Formula II, methyl 1,4,4-trimethyl-1,4-dihydropyridine-3-carboxylate]	450 nm	360 nm	–
COC(=O)C1=CN(C)C=C(C(=O)O)C1 [Chemical Formula IV, 5-(methoxycarbonyl)-1-methyl-1,4-dihydropyridine-3-carboxylic acid]	480 nm	390-400 nm	–
O=C(O)/C=C/c1cc2ccc(O)cc2oc1=O [Chemical Formula IX, 3-(7-hydroxy-2-oxo-2H-chromen-3-yl)acrylic acid]	480 nm	370-380 nm	–
COC(=O)C1=C(C)N(Cc2ccccc2)C=CC1(C)C [Chemical Formula V, methyl 1-benzyl-2,4,4-trimethyl-1,4-dihydropyridine-3-carboxylate]	430 nm	330 nm	–
COC(=O)C1=CN(C)C=C(C(=O)OC)C1C=C(C)C [Chemical Formula VI, dimethyl 1-methyl-4-(2-methyl-1-propenyl)-1,4-dihydropyridine-3,5-dicarboxylate]	450 nm	390 nm	–
COC(=O)C1=CN(C)C=C(C(=O)O)C1C=C(C)C (centres unmarked) [Chemical Formula VII, 5-(methoxycarbonyl)-1-methyl-4-(2-methyl-1-propenyl)-1,4-dihydropyridine-3-carboxylic acid]	450 nm	380 nm	–
COC(=O)CC1C(C(=O)OC)=CN(C)C=C1C(=O)OC [Chemical Formula VIII, dimethyl 4-(2-methoxy-2-oxoethyl)-1-methyl-1,4-dihydropyridine-3,5-dicarboxylate]	450 nm	370 nm	–
COC(=O)/C=C/c1cc2ccc(O)cc2oc1=O [Chemical Formula X, methyl 3-(7-hydroxy-2-oxo-2H-chromen-3-yl)acrylate]	510 nm	430 nm	–
CC(C)(C)OC(=O)NCCNC(=O)/C=C/c1cc2ccc(O)cc2oc1=O [Chemical Formula XI, tert-butyl 2-(3-(7-hydroxy-2-oxo-2H-chromen-3-yl)acrylamido)ethylcarbamate]	480 nm	380-420 nm	–
Cc1ccc2cc(C(=O)O)c(=O)oc2c1 [Chemical Formula XIII]	450 nm	400 nm	–
Cc1cc(=O)oc2cc(O)ccc12 [Chemical Formula XIV]	450 nm	370 nm	–
CN(C)c1cccc2c(S(=O)(=O)Cl)cccc12 [Chemical Formula XIX]	520 nm	340 nm	–
CCN(CC)c1ccc2cc(C(=O)n3ccnc3)c(=O)oc2c1 [Chemical Formula XVIII]	470 nm	400 nm	–
COc1ccc2cc(C(=O)O)c(=O)oc2c1 [Chemical Formula XVI]	390 nm	330 nm	–
CC(C)(C)OC(=O)Nc1ccc2cc(/C=C/C(=O)O)ccc2c1 [Chemical Formula XV]	450 nm	330 nm	–
CCOC(=O)Cc1cc(=O)oc2cc(N(C)C)ccc12 [Chemical Formula XX, ethyl 2-(7-(dimethylamino)-2-oxo-2H-chromen-4-yl)acetate]	490 nm	370 nm	–
CN(C)c1ccc2c(CC(=O)O)cc(=O)oc2c1 [Chemical Formula XXI, 2-(7-(dimethylamino)-2-oxo-2H-chromen-4-yl)acetic acid]	480 nm	370 nm	–
CCOC(=O)Cc1cc(=O)oc2cc(N(CC)CC)ccc12 [Chemical Formula XXII, ethyl 2-(7-(diethylamino)-2-oxo-2H-chromen-4-yl)acetate]	450 nm	370 nm	–
CC(C)[C@H](NC(=O)[C@H](CCC(=O)O)NC(=O)[C@H](CC(=O)O)NC(=O)CCC(=O)NCCNc1cccc2ccccc12)C(=O)N[C@H](C=O)CC(=O)O [Chemical Formula XXIII]	–	–	increase of fluorescence at 445 nm (active caspase): approximately 300%; iFRET signals (inactive caspase): no iFRET signals were observed; fluorescence emission wavelength of probe alone [3]: approximately 445 nm
O=C(CCCC[C@@H]1SC[C@@H]2NC(=O)N[C@@H]21)NCCNc1cccc2ccccc12 [Chemical Formula XXV, N-biotinyl N′-(1-naphthyl)ethylenediamine]	–	–	Quantum yield (ΦF) [4]: 0.7; R0 (Fōrster distance) (streptavidin [5]): 1.837 nm; fluorescence emission wavelength of probe alone [3]: 430 nm; fluorescence / iFRET signal of mixture of probe and streptavidin (streptavidin [6]): increased fluorescence at 430 nm
O=C(CCCCC1SCC2NC(=O)NC21)NCCNC(=O)Cc1cc(=O)oc2cc(O)ccc12 (centres unmarked) [Chemical Formula XXVI, N-(7-hydroxycoumarin-4-acetyl)-N′-(biotinyl)ethylenediamine]	–	–	Quantum yield (ΦF) [4]: 0.7; R0 (Fōrster distance) (streptavidin [5]): 1.675 nm; fluorescence emission wavelength of probe alone [3]: 460 nm; fluorescence / iFRET signal of mixture of probe and streptavidin (streptavidin [6]): increased fluorescence at 460 nm; fluorescence increasing rate at emission wavelength 460 nm (streptavidin [6]; mixture of probe and streptavidin): ≥ 600%
O=C(/C=C/c1cc2ccc(O)cc2oc1=O)NCCNC(=O)CCCC[C@@H]1SC[C@@H]2NC(=O)N[C@@H]21 [Chemical Formula XXVII, N-((E)-7-hydroxycoumarin-3-acryl)-N′-(biotinyl)ethylenediamide]	–	–	Quantum yield (ΦF) [4]: 0.105; R0 (Fōrster distance) (streptavidin [5]): 2.161 nm; fluorescence / iFRET signal of mixture of probe and streptavidin (streptavidin [6]): increased fluorescence at 480 nm
COC(=O)CCC(NC(=O)C(CC(=O)OC)NC(=O)CCC(=O)NCCNc1cccc2ccccc12)C(=O)N[C@@H](C(=O)NC(CC(=O)OC)C(=O)C(F)(F)F)C(C)C (stereo partly drawn) [Chemical Formula XXXII, N-(1-naphthyl)ethyleneamide-4-butaneamide-Asp(CO2Me)-L-Glu(CO2Me)-L-Val-Asp(CO2Me)-(ketone)-CF3]	–	–	fluorescence emission wavelength of probe [3]: 430 nm
N[C@@H](Cc1c[nH]c2ccccc12)C(=O)O [tryptophan]	–	–	quantum yield ΦF of standard material / FRET donor [1]: 0.12
